{
  "source": "patent US20190151283A1",
  "about": "“NON-STEROIDAL SELECTIVE GLUCOCORTICOID RECEPTOR AGONISTIC MODULATORS (SEGRAMs) AND USES THEREOF” (ASSOCIATION POUR LA RECHERCHE À L'IGBMC (ARI), priority 2017, published 2019)",
  "key": {"[1]": {"biological_target": "T1, glucocorticoid receptor (GR) (Mus musculus, UniProt P06537)", "T1 construct": "RNA transcripts were then extracted from mouse ears; from tissue; host or cells: ear skin of Balb/C mice (in vivo topical treatment)", "T1 sequence (P06537 1-792)": "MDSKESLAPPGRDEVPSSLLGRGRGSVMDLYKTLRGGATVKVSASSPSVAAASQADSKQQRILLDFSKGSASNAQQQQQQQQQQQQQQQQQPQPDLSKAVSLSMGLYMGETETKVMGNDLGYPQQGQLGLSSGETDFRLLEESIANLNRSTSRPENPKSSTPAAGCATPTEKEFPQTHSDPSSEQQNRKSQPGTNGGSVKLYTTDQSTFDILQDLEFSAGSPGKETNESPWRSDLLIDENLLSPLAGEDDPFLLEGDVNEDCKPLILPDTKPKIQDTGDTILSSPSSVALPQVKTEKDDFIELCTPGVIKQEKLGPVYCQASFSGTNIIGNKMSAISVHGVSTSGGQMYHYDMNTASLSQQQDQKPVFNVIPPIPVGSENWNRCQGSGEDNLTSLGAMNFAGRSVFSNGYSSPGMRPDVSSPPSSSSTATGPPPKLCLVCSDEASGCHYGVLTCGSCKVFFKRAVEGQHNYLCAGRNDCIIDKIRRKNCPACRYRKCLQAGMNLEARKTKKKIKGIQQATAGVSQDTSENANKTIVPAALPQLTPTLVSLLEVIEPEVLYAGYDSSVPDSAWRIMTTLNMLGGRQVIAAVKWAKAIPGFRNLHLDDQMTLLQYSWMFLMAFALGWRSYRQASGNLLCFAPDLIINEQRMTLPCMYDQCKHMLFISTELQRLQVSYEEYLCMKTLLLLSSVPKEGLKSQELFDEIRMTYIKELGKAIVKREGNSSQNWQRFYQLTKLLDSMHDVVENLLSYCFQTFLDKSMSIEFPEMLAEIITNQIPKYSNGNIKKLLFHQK", "assay": "GR transcriptional functions in mouse ears after topical 18-hour treatment (q-RT-PCR)", "format": "in vivo", "protocol": "RNA transcripts were then extracted from mouse ears and the transcripts of 4 genes were analyzed by q-RT-PCR: • (i) the directly GR-transactivated gene of the mTOR inhibitor REDD1, • (ii) the GR-directly transrepressed gene of keratin 5 (K5) and • (iii) the GR-indirectly “tethered” transrepressed genes of interleukin-1β (IL-1β) and interleukin-6 (IL-6), both being activated in presence of 12-O-tetradecanoylphorbol-13-acetate (TPA)."}, "Balb/C mouse ears [2]": {"system": "Balb/C mouse ears", "assay": "Calcipotriol (MC 903)-induced atopic dermatitis-like inflammation", "format": "in vivo", "details": "for MC 903-induced ear skin inflammation, histological analysis: compared to the control; for MC 903-induced transcription of pro-inflammatory genes (MMP13, COX2, IL-1β, IL-6, IL-10, IL-13 and TSLP): ear extracts, q-RT-PCR, D23; for expression of the TSLP lymphokine in MC 903-treated mouse epidermis: immunohistochemistry, data not shown; for MC 903-induced skin inflammation: topical, 8 days co-treatment with MC 903", "protocol": "To investigate the CpdX anti-inflammatory activity in vivo, Balb/C mouse ears were topically treated with calcipotriol (MC 903, a vitamin D3 analogue), in order to induce an atopic dermatitis (AD)-like inflammation (Li et al., 2006. Proc Natl Acad Sci USA. 103[…].\nMice were treated for 14 days with MC 903, and then for 8 extra days (until D22) with either MC 903 alone (control), MC 903 and Dex, MC 903 and CpdX, MC 903 and CpdX(eA), MC 903 and CpdX(eB), MC 903 and CpdX-D3, MC 903 and CpdX-D3(eA) and MC 903 and CpdX-D3(eB).\nAt D23, RNA transcripts were extracted from mouse ear skin samples and the transcripts of 7 cytokines (MMP13, COX2, IL-1β, IL-6, IL-10, IL-13 and TSLP) were analyzed by q-RT-PCR. Ear skin was harvested and histological (with H&E staining) and immunohistochemical (with anti-TSLP antibodies) analyses were carried out."}, "mice": {"system": "mice", "assay": "Ovalbumin (OVA)-induced asthma-like allergic lung inflammation", "format": "in vivo, mouse", "protocol": "Glucocorticoids have been (Pearlman et al., 1997. Ann Allergy Asthma Immunol. 78(4):356-62), and are still, widely used in asthma therapy. In order to investigate the possible CpdX anti-inflammatory activity in vivo, mice were sensitized and challenged with either ovalbumin (OVA) or house dust mite (HDM) to induce an asthma-like allergic lung inflammation.\nMice were intraperitoneally sensitized with either 50 μg OVA together with alum or with alum alone on D0, D7 and D14. Mice were then subdivided into three groups, and on D19, D20 and D21, they were intranasally (i.n.) challenged with 10 μg OVA. The first and the second group received intranasally 0.5 mg/kg of body weight of Dex or CpdX respectively, while the third group served as a control.\nOn D22, the lung allergic inflammation was assessed for each mouse by examination of the bronchoalveolar lavage fluid (BAL). The total BAL cells, eosinophils, neutrophils, macrophages and lymphocytes were counted. RNA transcripts were extracted from lung samples and RNA transcripts of IL-1β, IL-6, IL-4, IL-5, IL-10, IL-13, Eotaxin, CCL4 and TNFα were analyzed by q-RT-PCR. Histological (with H&E staining) and immunohistochemical (with eosinophil-specific and neutrophil-specific antibodies) analyses of lung tissues were also carried out."}, "Balb/C mouse ears [3]": {"system": "Balb/C mouse ears", "assay": "Aldara-induced psoriasis-like skin inflammation", "format": "in vivo", "details": "for induced expression of the Th17 cytokines IL-17a, IL-17c, IL-17f and IL-22: ear extracts, q-RT-PCR, D10; for Aldara-induced psoriasis-like skin inflammation, H&E histology: mouse, in vivo; for Aldara-induced psoriasis-like skin inflammation: topical co-treatment for the last 5 days, 1 nmole/cm^2", "protocol": "Balb/C mouse ears were topically treated with Aldara® to induce a psoriasis-like skin inflammation (Vinter et al., 2015. Br J Dermatol. 172(2):345-53). Mice were treated for 9 days with Aldara®, including a co-topical treatment for the last 5 days with either ethanol (Vehicle), Dex, CpdX or CpdX-D3.\nAt D10, RNA transcripts were extracted from mouse ears and IL-17a, IL-17c, IL-17f and IL-22 transcripts were analyzed by q-RT-PCR. Ear skin samples were also harvested for histological analyses (with H&E staining)."}, "B6 male mice": {"system": "B6 male mice", "assay": "Body weight and body composition after three-month treatment", "format": "in vivo, mouse", "details": "s.c. 1 mg/kg daily, 3 months, pDEXA", "protocol": "B6 male mice (8-week-old) were daily subjected for three months to a subcutaneous injection of either vehicle (NaCl 0.9%), Dex, CpdX or CpdX-D3 (1 mg/kg body weight, diluted in vehicle. A pDEXA machine was used to determine the lean mass and fat mass. The statistical significance was calculated through Krustal-Walis test followed by a Dunn's multiple comparison test, *p<0.05; **p<0.01; ***p<0.001."}, "[4]": {"details": "topical 18 h, 1 nmole/cm^2, q-RT-PCR, vs Vehicle"}},
  "data": [
    {"smiles": "COc1ccc(F)cc1C(C)(C)CC(O)(CNc1ccc2c(c1)COC2=O)C(F)(F)F", "note": "(racemic) [CpdX, 5-[4-(5-fluoro-2-methoxyphenyl)-2-hydroxy-4-methyl-2-(trifluoromethyl)pentylamino]-isobenzofuran-1(3H)-one]", "values": [
      {"measurement": "GR functions induced (direct transactivation, direct transrepression, indirect tethered transrepression)", "setting": "[1]; in vivo transcriptional analyses, 1 nmole/cm^2", "value": "selectively exhibits an indirect tethered transrepression activity"},
      {"measurement": "direct transrepression of the K5 gene (relative RNA expression)", "setting": "[1]; [4]", "value": "unchanged"},
      {"measurement": "transactivation of the REDD1 gene (relative RNA expression)", "setting": "[1]; [4]", "value": "unchanged"},
      {"measurement": "MC 903-induced ear skin inflammation, histological analysis", "setting": "Balb/C mouse ears [2]", "value": "decreased"},
      {"measurement": "MC 903-induced transcription of pro-inflammatory genes (MMP13, COX2, IL-1β, IL-6, IL-10, IL-13 and TSLP)", "setting": "Balb/C mouse ears [2]", "value": "repressed, as efficiently as Dex"},
      {"measurement": "expression of the TSLP lymphokine in MC 903-treated mouse epidermis", "setting": "Balb/C mouse ears [2]", "value": "similarly strongly decreased"},
      {"measurement": "MC 903-induced skin inflammation", "setting": "Balb/C mouse ears [2]", "value": "significantly decreased"},
      {"measurement": "eosinophils and neutrophils in lung, immunohistochemistry", "setting": "mice; data not shown", "value": "similarly decreased"},
      {"measurement": "peribronchiolar and perivascular inflammatory cell infiltration", "setting": "mice; histology of lung paraffin sections", "value": "strongly decreased"},
      {"measurement": "number of macrophages in BAL", "setting": "mice; intranasal 0.5 mg/kg on D19-D21, BAL on D22", "value": "unchanged"},
      {"measurement": "total number of BAL cells, eosinophils, neutrophils and lymphocytes", "setting": "mice; intranasal 0.5 mg/kg on D19-D21, BAL on D22, vs control group", "value": "significantly decreased"},
      {"measurement": "expressions of IL-1β, IL-6, IL-4, IL-5, IL-10, IL-13, Eotaxin, CCL4 and TNFα in lung samples", "setting": "mice; q-RT-PCR, D22", "value": "significantly and similarly decreased"},
      {"measurement": "induced expression of the Th17 cytokines IL-17a, IL-17c, IL-17f and IL-22", "setting": "Balb/C mouse ears [3]", "value": "similarly reduced"},
      {"measurement": "Aldara-induced psoriasis-like skin inflammation, H&E histology", "setting": "Balb/C mouse ears [3]", "value": "could reduce"},
      {"measurement": "Aldara-induced psoriasis-like skin inflammation", "setting": "Balb/C mouse ears [3]", "value": "significantly decreased"},
      {"measurement": "fat mass", "setting": "B6 male mice", "value": "commensurate increase"},
      {"measurement": "lean percentage / lean mass", "setting": "B6 male mice", "value": "commensurate increase"}
    ]},
    {"smiles": "[2H]C([2H])([2H])Oc1ccc(F)cc1C(C)(C)CC(O)(CNc1ccc2c(c1)COC2=O)C(F)(F)F", "note": "(racemic) [CpdX-D3, 5-{4-[2-(methoxy-D3)-5-fluorophenyl]-2-hydroxy-4-methyl-2-(trifluoro-methyl)pentylamino}isobenzofuran-1(3H)-one]", "values": [
      {"measurement": "MC 903-induced ear skin inflammation, histological analysis", "setting": "Balb/C mouse ears [2]", "value": "decreased"},
      {"measurement": "MC 903-induced transcription of pro-inflammatory genes (MMP13, COX2, IL-1β, IL-6, IL-10, IL-13 and TSLP)", "setting": "Balb/C mouse ears [2]", "value": "repressed, as efficiently as Dex"},
      {"measurement": "expression of the TSLP lymphokine in MC 903-treated mouse epidermis", "setting": "Balb/C mouse ears [2]", "value": "similarly strongly decreased"},
      {"measurement": "MC 903-induced skin inflammation", "setting": "Balb/C mouse ears [2]", "value": "significantly decreased"},
      {"measurement": "induced expression of the Th17 cytokines IL-17a, IL-17c, IL-17f and IL-22", "setting": "Balb/C mouse ears [3]", "value": "similarly reduced"},
      {"measurement": "Aldara-induced psoriasis-like skin inflammation, H&E histology", "setting": "Balb/C mouse ears [3]", "value": "could reduce"},
      {"measurement": "Aldara-induced psoriasis-like skin inflammation", "setting": "Balb/C mouse ears [3]", "value": "significantly decreased"},
      {"measurement": "fat mass", "setting": "B6 male mice", "value": "commensurate increase"},
      {"measurement": "lean percentage / lean mass", "setting": "B6 male mice", "value": "commensurate increase"}
    ]}
  ]
}
